# Measurements: US5688767A, “Treatment of endotoxin-associated disorders with cationic peptides” (priority 1996, dated 1997)
# Columns and labels:
# [1] = Lethality of peptide alone in mice; assay type: in vivo
# Gram-negative bacteria = test: MIC range over a broad range of Gram-negative bacteria; assay type: cell-based; details: broad range of Gram-negative bacteria (Table 9)
# Procedure: CEME and CEMA were able to kill a broad range of Gram-negative bacteria with MICs ranging from 1-16 μg/ml (Table 9). These bacteria included many of the life-threatening gram-negative pathogens associated with septicemia and endotoxic shock.
# (§1) Bacteria included the Bort strain of E. coli (Bortolussi, et al., Inf. Immun., 25:293, 1979) that was originally derived from a case of neonatal meningitis, and which is therefore considered a relevant pathogenic strain to study, and the 0111:B4 strain of E. coli (kindly provided by Dr. D. Morrison) which is a standard source of endotoxin. (Kelly, et al., Inf. Immun., 59:4491, 1991). In addition, P. aeruginosa PA01 strain H103, P. aeruginosa M2, P. aeruginosa K799, Eschericha coli UB 1005, Enterobacter cloacae 218S, Salmonella typhimurium MS7953s, Klebsiella pneumoniae ATCC 13883, Xanthomonas maltophilia ATCC 13637, and Acinetobacter calcoacetious 8193 were employed. LPS was obtained from E. coli Bort by the technique of Westphal and Jann, (Westphal, et al., Acad. Press, Inc. NY., 5:83) and from P. aeruginosa H103 by the method of Darveau and Hancock, (Darveau, et al., J. Bacteriol, 155:831, […]). E. coli 0111:B4 LPS was purchased from Sigma.
# Candida albicans = test: MIC, same assay; assay type: cell-based; details: fragments of CEMA
# S. aureus = test: microbe, parasite or virus in culture; assay type: cell-based, Staphylococcus aureus; details: fragments of CEMA, strain not given
# Procedure: (§2) The minimum inhibitory concentrations of (MIC) of CEME, CEMA and melittin were determined for a number of different bacteria (Table 2). Briefly, cells were grown overnight at 37° C. in LB-S (Luria broth without any salt supplement) and diluted one in 10,000 in the same medium to give concentrations of about 10^4 to 10^5 CFU/ml. The broth dilutions were set up in a 96 well microtiter plate by putting 200 μl of LB-S containing the initial concentration of antibiotic or compound in column 1 and 100 μl of the same medium in columns 2-12. The compounds were diluted by taking 100 μl of broth from column 1 and mixing it with column 2, resulting in a one in two dilution. This was continued to column 10. Finally, 10 μl of bacteria were pipetted into columns 1-11, and the plates incubated overnight at 37° C. The next day the plates were scored for growth in the wells, and the MIC determined.
# E. coli = test: microbe, parasite or virus in culture; assay type: cell-based, Escherichia coli; details: fragments of CEMA, strain not given
# Procedure: as §2, §1
# P. aeruginosa = test: microbe, parasite or virus in culture; assay type: cell-based, Pseudomonas aeruginosa; details: fragments of CEMA, strain not given
# Procedure: as §2, §1
# [2] = test system: P. aeruginosa H309 or E. cloacae 218R1; test: Lysozyme lysis assay (outer membrane permeabilization); assay type: cell-based, Pseudomonas aeruginosa; Enterobacter cloacae; details: 50 μg/ml lysozyme, varying concentrations of compound
# Procedure: Membrane permeabilization by polycationic compounds was measured in two different assays. The first assay measured membrane disruption by the ability of lysozyme to reach the periplasm and cause cell lysis. […] The uptake of lysozyme into whole cells due to membrane permeabilization by various compounds was previously described in Hancock, et al., Antimicrobial Agents and Chemo., 19:777, 1981. Overnight cultures of P. aeruginosa H309 or E. cloacae 218R1 grown in LB-S were diluted 1 in 50 in fresh medium and grown to an OD600 =0.5-0.6. The cells were harvested in a Silencer H-103N clinical centrifuge at 1800 g for 10 min, washed once with one volume of assay buffer (5 mM HEPES pH 7.2, 5 mM KCN), and resuspended in the same buffer to an OD600 of 0.5. Assays consisted of 600 μl of cells with 50 μg/ml of chicken egg white lysozyme and varying concentrations of cationic compounds. Cell lysis was measured as a decrease in the OD600 in a Perkin-Elmer dual beam spectrophotometer. Parallel experiments performed without lysozyme enabled the measurement of the lytic activity of the compounds themselves. To test whether or not permeability to lysozyme could be inhibited by divalent cations, various concentrations of MgCl2 were added to the assay after the addition of lysozyme and before the addition of the test compound.
# E. coli strain DC2 = test: Antibacterial activity on acid-urea gel overlaid with bacteria; assay type: cell-based, Escherichia coli; details: ≈10^5 E. coli strain DC2, overnight at 37° C.
# Procedure: A sample of the partially purified CEME protein was electrophoresed on a 15% acid-urea gel, which separates proteins based on charge and mass (Panyim and Chalkey, Arch. Biochem. Biophys., 130:337, 1969). The pH of the buffer is acidic (≈pH 5.0) and the polarity is reversed such that proteins migrate to the cathode. Therefore, the small cationic peptides run relatively quickly through the gel and thus can be easily identified. Antibacterial activity was tested as previously described (Hultmark, Eur. J. Biochem., 106:7, 1980). The gel was incubated in Mueller Hinton broth+0.2M NaPO4 pH 7.4 for 1 hr. It was overlaid with 5 mls of the same media containing 0.6% agar and ≈10^5 E. coli strain DC2, and then again with 5 ml of the same media containing only 0.6% agar. […] Melittin is used as a positive control due to its antibacterial activity and similarity in size and PI values.
# [3] = test system: P. aeruginosa H309 or E. cloacae 218R1; assay type: cell-based, Pseudomonas aeruginosa; Enterobacter cloacae; details: 10 μM NPN
# Text: The second assay determined membrane permeability by the ability of 1-N-phenylnaphthylamine(NPN), a small fluorescent probe, to insert itself into the membrane. Normally, very little NPN can penetrate the outer membrane, but in the presence of a membrane permeabilizer it can insert into the hydrophobic membrane resulting in an increase in fluorescence (FIGS. 7 and 8). This N-phenylnaphthylamine uptake assay was previously described by Loh, et al., Antimicrobial Agents and Chemo., 26:546, 1984. Cells were prepared exactly the same as for the lysozyme lysis assay. 1-N-phenylnaphthylamine(NPN) was dissolved in acetone at a concentration of 500 μM. NPN fluorescence was measured in a Perkin-Elmer 650-10S fluorescent spectrophotometer using excitation and emission wavelengths set to 350 nm and 420 nm respectively, with slit widths of 5 nm. The assay was standardized by adding 20 μl of NPN (final concentration of 10 μM) and 10 μl of 0.64 mg/ml of polymyxin B (final concentration of 6.4 μg/ml) into 1 ml of cells, and adjusting the resulting fluorescence to read 90% deflection (90 arbitrary units). Various compounds were tested by adding 10 μl of different concentrations to a cuvette containing 1 ml of cells and 10 μM NPN. Permeabilizing activity was designated as the total fluorescence minus the fluorescence due to NPN alone. Following the fluorescence measurement, the OD600 of the cells was taken to ensure no significant cell lysis had occurred.
smiles,measurement,setting,value
CC[C@H](C)[C@H](NC(=O)CNC(=O)[C@@H](NC(=O)[C@H](CCCCN)NC(=O)[C@H](CCCCN)NC(=O)[C@H](Cc1ccccc1)NC(=O)[C@H](CC(C)C)NC(=O)[C@H](CCCCN)NC(=O)[C@H](Cc1c[nH]c2ccccc12)NC(=O)[C@@H](N)CCCCN)[C@@H](C)CC)C(=O)NCC(=O)N[C@@H](C)C(=O)N[C@H](C(=O)N[C@@H](CC(C)C)C(=O)N[C@@H](CCCCN)C(=O)N[C@H](C(=O)N[C@@H](CC(C)C)C(=O)N[C@H](C(=O)N[C@H](C(=O)NCC(=O)N[C@@H](CC(C)C)C(=O)N1CCC[C@H]1C(=O)N[C@@H](C)C(=O)N[C@@H](CC(C)C)C(=O)N[C@H](C(=O)N[C@@H](CO)C(=O)O)[C@@H](C)CC)[C@@H](C)O)[C@@H](C)O)C(C)C)C(C)C [CEME],survival of mice given peptide alone,[1]; 200 μg (8.7 mg/kg) alone,survived
same,% Mortality,"[1]; no LPS, peptide 200 ug",0%
same,dead/total,"[1]; no LPS, peptide 200 ug",0/5
same,"MICs, range over strains",Gram-negative bacteria,1 to 16 µg/mL
CC[C@H](C)[C@H](NC(=O)CN)C(=O)NCC(=O)N[C@@H](C)C(=O)N[C@H](C(=O)N[C@@H](CC(C)C)C(=O)N[C@@H](CCCCN)C(=O)N[C@H](C(=O)N[C@@H](CC(C)C)C(=O)N[C@H](C(=O)N[C@H](C(=O)NCC(=O)N[C@@H](CC(C)C)C(=O)N1CCC[C@H]1C(=O)N[C@@H](C)C(=O)N[C@@H](CC(C)C)C(=O)N[C@@H](CCCCN)C(=O)N[C@@H](CC(C)C)C(=O)N[C@H](C(=O)N[C@@H](CCCCN)C(=O)O)[C@@H](C)O)[C@@H](C)O)[C@@H](C)O)C(C)C)C(C)C [MA],MIC,Candida albicans,greater than 64 ug/ml
same,MIC,S. aureus,greater than 64 ug/ml
same,MIC,E. coli,greater than 64 ug/ml
same,MIC,P. aeruginosa,greater than 64 ug/ml
"CC[C@H](C)[C@H](NC(=O)CN)C(=O)NCC(=O)N[C@@H](C)C(=O)N[C@H](C(=O)N[C@@H](CC(C)C)C(=O)N[C@@H](CCCCN)C(=O)N[C@H](C(=O)N[C@@H](CC(C)C)C(=O)N[C@H](C(=O)N[C@H](C(=O)NCC(=O)N[C@@H](CC(C)C)C(=O)N1CCC[C@H]1C(=O)N[C@@H](C)C(=O)N[C@@H](CC(C)C)C(=O)N[C@H](C(=O)N[C@@H](CO)C(=O)N[C@@H](Cc1c[nH]c2ccccc12)C(=O)N[C@H](C(=O)N[C@@H](CCCCN)C(=O)N[C@@H](CCCNC(=N)N)C(=O)N[C@@H](CCCCN)C(=O)N[C@@H](CCCNC(=N)N)C(=O)N[C@@H](CCC(N)=O)C(=O)N[C@@H](CCC(N)=O)C(N)=O)[C@@H](C)CC)[C@@H](C)CC)[C@@H](C)O)[C@@H](C)O)C(C)C)C(C)C [Melittin, melittin]",permeabilization of outer membrane to lysozyme,[2],did not appear to be a good permeabilizer
same,antibacterial activity on overlaid gel,E. coli strain DC2,zones of clearing
same,activity in opening up the membrane to NPN,[3],less active
